Test results taken from ChEMBL document CHEMBL4680316, “JNK selective inhibitor, IQ-1S, protects the mice against lipopolysaccharides-induced sepsis” (2021).
Calls of active or inactive are those of the source. No cut-off for these calls is given here.

How the values were obtained:
Mus musculus [1] = test: Antiinflammatory activity in wild type C57BL/6 mouse model of LPS and D-galactosamine-induced sepsis assessed as survival of organism at 50 to 200 ug, iv administered 2 hrs before LPS and D-galactosamine administration and observed for 20 hrs; format: functional, organism-based; details: dose 50-200 µg, time 22.0 hrs
Mus musculus [2] = test: Antiinflammatory activity in C57BL/6 mouse model of LPS-induced sepsis assessed as CD4 cells in spleen at 200 ug, iv administered 2 hrs after LPS administration and measured after 10 hrs of post LPS administration by flow cytometry analysis (reference value: 23.8 %); format: functional; details: dose 200 µg; time 8 hrs
Mus musculus [3] = test: Antiinflammatory activity in C57BL/6 mouse model of LPS-induced sepsis assessed as CD8+ cells in spleen at 200 ug, iv administered 2 hrs after LPS administration and measured after 10 hrs of post LPS administration by flow cytometry analysis (reference value: 13 %); format: functional; details: dose 200 µg; time 8 hrs
Mus musculus [4] = test: Antiinflammatory activity in C57BL/6 mouse model of LPS-induced sepsis assessed as neutrophils in spleen at 200 ug, iv administered 2 hrs after LPS administration and measured after 10 hrs of post LPS administration by flow cytometry analysis (reference value: 24.8 %); format: functional; details: dose 200 µg; time 8 hrs
Mus musculus [5] = test: Antiinflammatory activity in C57BL/6 mouse model of LPS-induced sepsis assessed as macrophages in spleen at 200 ug, iv administered 2 hrs after LPS administration and measured after 10 hrs of post LPS administration by flow cytometry analysis (reference value: 9.69 %); format: functional; details: dose 200 µg; time 8 hrs
Mus musculus [6] = test: Antiinflammatory activity in wild type C57BL/6 mouse model of LPS and D-galactosamine-induced sepsis assessed as decrease in area of immune cells in lungs at 50 to 200 ug, ip administered 2 hrs after LPS and D-galactosamine administration and measured after 10 hrs of post LPS administration by H and E staining based imaging analysis; format: functional, organism-based; details: dose 50-200 µg, time 8.0 hrs
Mus musculus [7] = test: Antiinflammatory activity in wild type C57BL/6 mouse model of LPS and D-galactosamine-induced sepsis assessed as decrease in serum TNF-alpha level at 50 to 200 ug, ip administered 2 hrs after LPS and D-galactosamine administration and measured after 10 hrs of post LPS administration by ELISA; format: functional, organism-based; details: dose 50-200 µg, time 8.0 hrs
Mus musculus [8] = test: Antiinflammatory activity in wild type C57BL/6 mouse model of LPS and D-galactosamine-induced sepsis assessed as decrease in serum IL-6 level at 50 to 200 ug, ip administered 2 hrs after LPS and D-galactosamine administration and measured after 10 hrs of post LPS administration by ELISA; format: functional, organism-based; details: dose 50-200 µg, time 8.0 hrs
Mus musculus [9] = test: Antiinflammatory activity in wild type C57BL/6 mouse model of LPS and D-galactosamine-induced sepsis assessed as decrease in serum IL-1beta level at 50 to 200 ug, ip administered 2 hrs after LPS and D-galactosamine administration and measured after 10 hrs of post LPS administration by ELISA; format: functional, organism-based; details: dose 50-200 µg, time 8.0 hrs
BMDM [10] = test: Antiinflammatory activity in LPS-induced sepsis C57BL/6 mouse BMDM cells assessed as reduction in IL-6 mRNA expression at 1 uM treated 1 hr before LPS stimulation and measured after 2 and 6 hrs by qRT-PCR analysis; format: functional, cell-based; details: time 2-6 hrs
BMDM [11] = test: Antiinflammatory activity in LPS-induced sepsis C57BL/6 mouse BMDM cells assessed as reduction in IL-1beta mRNA expression at 1 uM treated 1 hr before LPS stimulation and measured after 2 and 6 hrs by qRT-PCR analysis; format: functional, cell-based; details: time 2-6 hrs
BMDM [12] = test: Antiinflammatory activity in LPS-induced sepsis C57BL/6 mouse BMDM cells assessed as reduction in TNF-alpha mRNA expression at 1 uM treated 1 hr before LPS stimulation and measured after 2 and 6 hrs by qRT-PCR analysis; format: functional, cell-based; details: time 2-6 hrs
BMDM [13] = test: Antiinflammatory activity in LPS-induced sepsis C57BL/6 mouse BMDM cells assessed as reduction in IL-6 secretion at 1 uM treated 1 hr before LPS stimulation and measured after 12 and 24 hrs by ELISA; format: functional, cell-based; details: time 12-24 hrs
BMDM [14] = test: Antiinflammatory activity in LPS-induced sepsis C57BL/6 mouse BMDM cells assessed as reduction in IL-1beta secretion at 1 uM treated 1 hr before LPS stimulation and measured after 12 and 24 hrs by ELISA; format: functional, cell-based; details: time 12-24 hrs
BMDM [15] = test: Antiinflammatory activity in LPS-induced sepsis C57BL/6 mouse BMDM cells assessed as reduction in TNF-alpha secretion at 1 uM treated 1 hr before LPS stimulation and measured after 12 and 24 hrs by ELISA; format: functional, cell-based; details: time 12-24 hrs
BMDM [16] = test: Antiinflammatory activity in CpG-induced sepsis C57BL/6 mouse BMDM cells assessed as reduction in IL-6 mRNA expression at 1 uM treated 1 hr before CpG stimulation by qRT-PCR analysis; format: functional, cell-based
BMDM [17] = test: Antiinflammatory activity in CpG-induced sepsis C57BL/6 mouse BMDM cells assessed as reduction in IL-1beta mRNA expression at 1 uM treated 1 hr before CpG stimulation by qRT-PCR analysis; format: functional, cell-based
BMDM [18] = test: Antiinflammatory activity in CpG-induced sepsis C57BL/6 mouse BMDM cells assessed as reduction in TNF-alpha mRNA expression at 1 uM treated 1 hr before CpG stimulation by qRT-PCR analysis; format: functional, cell-based
BMDM [19] = test: Antiinflammatory activity in CpG-induced sepsis C57BL/6 mouse BMDM cells assessed as reduction in IL-6 secretion at 1 uM treated 1 hr before CpG stimulation and measured after 12 and 24 hrs by ELISA; format: functional, cell-based; details: time 12-24 hrs
BMDM [20] = test: Antiinflammatory activity in CpG-induced sepsis C57BL/6 mouse BMDM cells assessed as reduction in IL-1beta secretion at 1 uM treated 1 hr before CpG stimulation and measured after 12 and 24 hrs by ELISA; format: functional, cell-based; details: time 12-24 hrs
BMDM [21] = test: Antiinflammatory activity in CpG-induced sepsis C57BL/6 mouse BMDM cells assessed as reduction in TNF-alpha secretion at 1 uM treated 1 hr before CpG stimulation and measured after 12 and 24 hrs by ELISA; format: functional, cell-based; details: time 12-24 hrs
BMDM [22] = test: Induction of IL-4-induced polarization of C57BL/6 mouse BMDM cells to M2 assessed as Arg mRNA expression at 1 uM pretreated for 1 hr by qRT-PCR analysis; format: functional, cell-based
BMDM [23] = test: Induction of IL-4-induced polarization of C57BL/6 mouse BMDM cells to M2 assessed as Mrc mRNA expression at 1 uM pretreated for 1 hr by qRT-PCR analysis; format: functional, cell-based
BMDM [24] = test: Inhibition of JNK signalling in LPS-induced sepsis wild type C57BL/6 mouse BMDM cells assessed as reduction in AP-1 expression at 1 uM pretreated for 1 hr by Western blot assay; format: cell-based
BMDM [25] = test: Inhibition of JNK signalling in LPS-induced sepsis wild type C57BL/6 mouse BMDM cells assessed as reduction in NF-kappaB expression at 1 uM pretreated for 1 hr by Western blot assay; format: cell-based
BMDM [26] = test: Inhibition of JNK signalling in LPS-induced sepsis wild type C57BL/6 mouse BMDM cells assessed as reduction in JNK-2 phosphorylation at 1 uM pretreated for 1 hr by Western blot assay; format: cell-based
BMDM [27] = test: Inhibition of JNK signalling in LPS-induced sepsis wild type C57BL/6 mouse BMDM cells assessed as reduction in p38 phosphorylation at 1 uM pretreated for 1 hr by Western blot assay; format: cell-based
BMDM [28] = test: Inhibition of JNK signalling in LPS-induced sepsis wild type C57BL/6 mouse BMDM cells assessed as reduction in IkappaBalpha phosphorylation at 1 uM pretreated for 1 hr by Western blot assay; format: cell-based
BMDM [29] = test: Inhibition of JNK signalling in LPS-induced sepsis wild type C57BL/6 mouse BMDM cells assessed as reduction in IKKbeta phosphorylation at 1 uM pretreated for 1 hr by Western blot assay; format: cell-based
BMDM [30] = test: Antiinflammatory activity in CpG-induced sepsis C57BL/6 mouse BMDM cells harboring JNK assessed as reduction in IL-6 mRNA expression at 1 uM pretreated for 1 hr by qRT-PCR analysis; format: functional, cell-based
BMDM [31] = test: Antiinflammatory activity in CpG-induced sepsis C57BL/6 mouse BMDM cells harboring JNK assessed as reduction in TNF mRNA expression at 1 uM pretreated for 1 hr by qRT-PCR analysis; format: functional, cell-based
BMDM [32] = test: Antiinflammatory activity in CpG-induced sepsis C57BL/6 mouse BMDM cells harboring JNK assessed as reduction in Nos2 mRNA expression at 1 uM pretreated for 1 hr by qRT-PCR analysis; format: functional, cell-based

[Na+].[O-]/N=C1/c2ccccc2-c2nc3ccccc3nc21
Activity (Mus musculus [1]): Active
Activity (Mus musculus [2]): 17.2%
Activity (Mus musculus [3]): 9.2%
Activity (Mus musculus [4]): 18.8%
Activity (Mus musculus [5]): 8.6%
Activity (Mus musculus [6]): Active
Activity (Mus musculus [7]): Active
Activity (Mus musculus [8]): Active
Activity (Mus musculus [9]): Active
Activity (BMDM [10]): Active
Activity (BMDM [11]): Active
Activity (BMDM [12]): Active
Activity (BMDM [13]): Active
Activity (BMDM [14]): Active
Activity (BMDM [15]): Active
Activity (BMDM [16]): Active
Activity (BMDM [17]): Active
Activity (BMDM [18]): Active
Activity (BMDM [19]): Active
Activity (BMDM [20]): Active
Activity (BMDM [21]): Active
Activity (BMDM [22]): inactive
Activity (BMDM [23]): inactive
inhibition (BMDM [24]): Active
inhibition (BMDM [25]): inactive
inhibition (BMDM [26]): Active
inhibition (BMDM [27]): Active
inhibition (BMDM [28]): Active
inhibition (BMDM [29]): Active
Activity (BMDM [30]): Active
Activity (BMDM [31]): Active
Activity (BMDM [32]): Active
